US20240156974A1, “COMPOSITIONS AND METHODS FOR MODULATION OF ANTIBODY ACTIVITY” (Institute For Cancer Research D/B/A Tha Research Institute …, priority 2021, published 2024)

Test system: CTLA-4/CD80 interaction
Test: In vitro CTLA-4/CD80 HTRF binding assay with triple-mutant anti-CTLA-4 scFv (Rip3)
Settings: no cathepsin B; up to 75 μM JK43 and prodrug; FIG. 2
Description: In addition to the above, an in vitro CTLA-4/CD80 HTRF (homogeneous time resolved fluorescence) binding assay was performed with cathepsin B activatable prodrug. Specifically, the HTRF assay was used to assess the ability of antibodies to block the CTLA-4/CD80 interaction using a CTLA-4/CD80 binding assay kit (cat. no. 64CTLA80PEG; Cisbio (Codolet, France)). […]
To the above, 4 μL of Tag1-CD80 protein and 4 μL of Tag2-CTLA-4 were added into a black 384-well low volume plate and then incubated at 37° C. for 10 minutes. […] These were used to measure the fluorescence energy transfer between donor Anti-Tag1 Eu Cryptate and acceptor Anti-Tag d2 reagent. Data was collected at different time points (1, 3, 8, 12 and 24 hours) and the FRET signals were measured on a envision multimode plate reader (PerkinElmer, Shelton, CT) using 340 nm as the excitation wavelength, a 620 nm filter for the Eu donor fluorescence detection, and a 665 nm filter for the acceptor fluorescence detection. HTRF signals were calculated as a ratio as follows: (intensity of 665 nm)/(intensity of 620 nm)×10,000, which was plotted against the WT/triple mutant antibody (5GSWT and 5GS 3′M (Rip3)) concentration to derive the EC50.

rescue of the activity of the triple mutant scFv variant (Rip3): rescues the activity
Compound: c1ccc(COc2ccc3cn[nH]c3c2)cc1 [Stitch3, 6-phenylmethoxy-1H-indazole]
